Like-named read-outs stand apart in the source and are kept apart here.

As usually defined, the ED50 is the dose that gives a 50% effect, or the effect in half of the subjects.

This test relates to Puerto Rican strain of Schistosoma mansoni. Nature of the test: Effectiveness in treatment of schistosomiasis in infected mice (worm kill after oral dosing, perfusion and liver count 14 days post treatment). In kind it is in vivo. The following applies: 336 h, oral gavage. As to the method:
Male mice are infected with 100 cercariae of Schistosoma mansoni and used 8-10 weeks post infection. The test compound(s) are suspended (at the desired concentration level) in a 10% solution of Cremophor EL in 0.2 M phosphate buffer at pH 7.0 (Cremophor EL is the registered trademark name of Badische Anilin und Soda-Fabrik of Ludwigshafen, West Germany for glycerol-polyethylene glycolricinoleate).
The resulting mixture is then administered to the mice by an oral gavage needle, using 0.3 ml. of the above suspension for a 30-gram animal. Fourteen days post treatment, the mice are killed by cervical dislocation and living worms are recovered from the blood vessels by perfusion. The liver is then removed and compressed between two glass plates, and the encapsulated (i.e., dead) worms are counted.
Effective doses required to kill 50% and 99% of male worms (i.e., ED50 and ED99 values, respectively) are calculated from the regression line of the dose response data.

For `O=C(C1CCCCC1)N1CC(=O)N2CCc3ccccc3C2C1` (stereo not drawn) [Praziquantel, 2-cyclohexylcarbonyl-4-oxo-1,2,3,6,7,11b-hexahydro-4H-pyrazino [2,1a]isoquinoline], the ED50 is, setting by setting: (compound alone, dose to kill 50% of male worms, read-out: ED50) 156 mg/kg; (praziquantel in combination with 12.5 mg./kg. of oxamniquine, 50% of male worms killed, read-out: ED50) 4.9 mg/kg.

For the compound `CC(C)NCC1CCc2cc(CO)c([N+](=O)[O-])cc2N1` (racemic) [Oxamniquine, dl-6-hydroxymethyl-2-isopropylaminomethyl-7-nitro-1,2,3,4-tetrahydroquinoline], the ED50 by setting is: (compound alone, dose to kill 50% of male worms) 39 mg/kg; (oxamniquine in combination with 25 mg./kg. of praziquantel, 50% of male worms killed) 8.6 mg/kg. The ED99 (compound alone, dose to kill 99% of male worms) stood at 89 mg/kg and the ED99 (oxamniquine in combination with 25 mg./kg. of praziquantel, 99% of male worms killed) came to 16.6 mg/kg.

These data come from patent publication US4303659A, “Schistosomicidal compositions” (Pfizer Inc., priority 1979, dated 1981).
